Values quoted from earlier work, collected in patent US20260345588A1, “COMBINED AGENTS WITH SYNERGISTIC EFFECTS AGAINST GLIOMAS” (Eberhard Karls Universitaet Tuebingen Medizinische Fakultaet, priority 2023, published 2026).

Key:
[1] = tested on: EHMT1; settings: EHMT1 peptide
[2] = tested on: cellular EHMT2
[3] = tested on: EHMT2; settings: EHMT2 peptide
[4] = tested on: Pim2; settings: Pim1 versus Pim2
[5] = tested on: Pim1; settings: ATP competitive inhibitor; cell-free assay
[6] = tested on: Pim3; settings: Pim1 versus Pim3
[7] = tested on: Fit3; settings: in words
[8] = tested on: haspin; settings: in words
[9] = use of tideglusib
[10] = tested on: Alzheimer's disease; settings: phase-IIa clinical trial; treatment discontinued

For `CNCc1cnn(-c2cc(Nc3nc(C)cc(NC)n3)ccc2OC)c1` [EHMT 2-IN-1], the IC50 [1] is listed as under 100 nM, the IC50 [2] is listed as under 100 nM and the IC50 [3] is listed as under 100 nM.
For `CN1CCC(CNc2ccc3ncc(-c4cccc(OC(F)(F)F)c4)n3n2)CC1` [SGI-1776], the “fold selective versus Pim2” value [4] is listed as […], the IC50 [5] is listed as […] and the “fold selective versus Pim3” value [6] is listed as […]. For the same molecule, the “potency to Fit3” value [7] was “potent” and the potency to haspin [8] was “potent”.
For `Cn1nnc2c(C(N)=O)ncn2c1=O` [Temozolomide], the injection-site reactions (people receiving the solution for infusion) is given as “injection-site reactions, such as pain, irritation, itching, warmth, swelling and redness, as well as bruising” and the side effects (people treated with temozolomide) is given as “nausea (feeling sick), vomiting, constipation, loss of appetite, alopecia (hair loss), headache, fatigue (tired-ness), convulsions (fits), rash, neutropenia or lymphopenia (low white-blood-cell counts), and thrombocytopenia (low blood platelet counts)”.
For `O=c1sn(-c2cccc3ccccc23)c(=O)n1Cc1ccccc1` [Tideglusib], the adverse reactions [9] is listed as “mild-moderate adverse reactions, which included transient increases in serum creatine kinase, ALT—or gGT—diarrhea, nausea, cough, fatigue, and headache” and the “clinical efficacy in Alzheimer's disease” value [10] is listed as “lack of efficacy”.
